From the CheMixHub viscosity set
± gives the uncertainty stated by the source.

Experiment: xn = mol fraction of the nth substance listed

COCCOCCOC + COC(=O)c1ccccc1
viscosity [mPa·s], 101.33 kPa
Settings	x1 = 0.1017	x1 = 0.1985	x1 = 0.3026	x1 = 0.3989	x1 = 0.4978	x1 = 0.599	x1 = 0.6958	x1 = 0.7991	x1 = 0.8979
298.15 K	1.707 ± 0.021	1.622 ± 0.02	1.532 ± 0.019	1.448 ± 0.018	1.367 ± 0.017	1.286 ± 0.016	1.209 ± 0.015	1.129 ± 0.014	1.055 ± 0.013
303.15 K	1.542 ± 0.019	1.467 ± 0.018	1.389 ± 0.017	1.317 ± 0.016	1.245 ± 0.016	1.173 ± 0.015	1.105 ± 0.014	1.036 ± 0.013	0.971 ± 0.012
308.15 K	1.401 ± 0.017	1.334 ± 0.017	1.264 ± 0.016	1.2 ± 0.015	1.137 ± 0.014	1.073 ± 0.014	1.014 ± 0.013	0.953 ± 0.012	0.894 ± 0.012
313.15 K	1.279 ± 0.016	1.218 ± 0.015	1.155 ± 0.015	1.1 ± 0.014	1.044 ± 0.013	0.987 ± 0.013	0.934 ± 0.012	0.879 ± 0.011	0.828 ± 0.011
318.15 K	1.169 ± 0.015	1.116 ± 0.014	1.061 ± 0.013	1.012 ± 0.013	0.962 ± 0.012	0.911 ± 0.012	0.862 ± 0.011	0.814 ± 0.011	0.768 ± 0.01

CCCCCCN + c1ccccc1
303.15 K, 101 kPa
Settings	viscosity [mPa·s]
x2 = 0.105	0.6977 ± 0.0078
x2 = 0.2983	0.645 ± 0.0072
x2 = 0.4918	0.6006 ± 0.0068
x2 = 0.5946	0.5814 ± 0.0066
x2 = 0.6955	0.5639 ± 0.0064
x2 = 0.7954	0.5506 ± 0.0062
x2 = 0.8997	0.549 ± 0.02

COCCOCCOC + CCCCCCC
viscosity [mPa·s], 101.33 kPa
Settings	x1 = 0.0978	x1 = 0.197	x1 = 0.2958	x1 = 0.3834	x1 = 0.4946	x1 = 0.594	x1 = 0.6956	x1 = 0.7955	x1 = 0.8992
298.15 K	0.407 ± 0.012	0.436 ± 0.013	0.471 ± 0.013	0.508 ± 0.014	0.562 ± 0.015	0.619 ± 0.017	0.689 ± 0.018	0.768 ± 0.02	0.871 ± 0.022
303.15 K	0.386 ± 0.012	0.412 ± 0.012	0.444 ± 0.013	0.478 ± 0.014	0.527 ± 0.015	0.58 ± 0.016	0.643 ± 0.017	0.714 ± 0.019	0.807 ± 0.021
308.15 K	0.367 ± 0.011	0.39 ± 0.012	0.421 ± 0.012	0.451 ± 0.013	0.5 ± 0.014	0.545 ± 0.015	0.602 ± 0.016	0.668 ± 0.018	0.751 ± 0.019
313.15 K	0.351 ± 0.011	0.371 ± 0.011	0.398 ± 0.012	0.426 ± 0.012	0.468 ± 0.013	0.513 ± 0.014	0.566 ± 0.015	0.627 ± 0.017	0.7 ± 0.018
318.15 K	0.333 ± 0.01	0.354 ± 0.011	0.378 ± 0.011	0.404 ± 0.012	0.443 ± 0.013	0.484 ± 0.014	0.532 ± 0.015	0.587 ± 0.016	0.656 ± 0.017
